Source: EP0298466A2, “Substituted alkene carboxylic acid amides and derivatives” (F. HOFFMANN-LA ROCHE AG, priority 1987, dated 1989)

What was measured:
[1] = molecular target: T1, Thromboxane Synthase (TXA₂ syn.) (Homo sapiens, UniProt P24557); assay: TXA₂ Synthesis Inhibition (microsomal fractions from human platelets); type: biochemical; settings: human platelet microsomes, ¹⁴C-PGH₂ 10µM, 22° for 2 minutes; read-out: Inhibition of TXA₂ Synthetase IC₅₀
T1 construct: using microsomal fractions from human platelets as enzyme source; from tissue; host or cells: microsomal fraction of human platelets
T1 sequence (P24557 1-533): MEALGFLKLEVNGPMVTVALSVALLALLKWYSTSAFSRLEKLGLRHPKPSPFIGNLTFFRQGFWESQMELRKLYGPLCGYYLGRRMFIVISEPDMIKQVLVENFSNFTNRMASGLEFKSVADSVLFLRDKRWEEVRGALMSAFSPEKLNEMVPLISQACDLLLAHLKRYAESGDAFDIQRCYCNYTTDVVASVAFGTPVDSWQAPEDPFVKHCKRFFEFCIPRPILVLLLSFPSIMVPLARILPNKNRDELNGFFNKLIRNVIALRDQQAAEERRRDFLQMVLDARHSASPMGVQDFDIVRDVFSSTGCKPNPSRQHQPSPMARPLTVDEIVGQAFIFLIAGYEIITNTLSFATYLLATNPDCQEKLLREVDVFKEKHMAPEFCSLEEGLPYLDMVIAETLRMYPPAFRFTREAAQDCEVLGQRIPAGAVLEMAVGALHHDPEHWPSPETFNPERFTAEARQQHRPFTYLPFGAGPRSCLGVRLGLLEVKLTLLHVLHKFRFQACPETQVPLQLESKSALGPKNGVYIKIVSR
Procedure: Thromboxane Synthase (TXA₂ syn.) inhibitory activity is measured by following the conversion of […] using microsomal fractions from human platelets as enzyme source. In the aqueous incubation medium, the TXA₂ decomposes rapidly into TXB₂. The amount of TXA₂ syn, is adjusted so that under the conditions of the assay approximately 80-90% of the substrate, PGH₂, is converted to product in control tubes. To prepare ¹⁴C-PGH₂, ¹⁴C-AA(50-60mCi/mmole) is incubated with sheep seminal vesicular gland microsomes for 1.5 min, at 37° and then the ¹⁴C-PGH₂ is extracted with diethylether, purified on columns of Sephadex LH-20 or silicic acid, and stored in acetone at -70°C. Incubations are done as follows, Sufficient ¹⁴C-PGH₂ to yield a final substrate concentration of 10µM (about 30,000 cpm) is added to the incubation tubes and then the acetone is removed under nitrogen. The tubes are placed in an ice bath and then 215 µl of ice cold phosphate buffered saline, 10 µl of ethanol (control) or of test drug in ethanol and 25 µl of the microsomal suspension are added with mixing in that order as rapidly as possible. The tubes are incubated at 22° for 2 minutes, the reaction is stopped and then the radioactive products and the unconverted PGH₂ are extracted and analyzed by thin layer chromatography. The amount of ¹⁴C-PGH₂ converted to products is analyzed by thin layer chromatography. The amount of ¹⁴C-PGH₂ converted to products was used as a measure of TXA₂ synthase activity. Inhibitors were tested initially at a concentration of 100 µM. IC₅₀ values were calculated by linear regression analysis of successive 10 fold dilutions of the test compound concentration.

PAF Binding = molecular target: T2, PAF Binding (Canis lupus familiaris, UniProt A0A8I3NSH0); assay: PAF binding assay (³H-PAF, dog platelets); settings: washed dog platelets (2 x 10⁷ platelets), 10 minutes at room temperature, read-out: Inhibition of PAF Binding IC₅₀
T2 construct: from tissue; host or cells: washed platelets from dog blood
T2 sequence (A0A8I3NSH0 1-343): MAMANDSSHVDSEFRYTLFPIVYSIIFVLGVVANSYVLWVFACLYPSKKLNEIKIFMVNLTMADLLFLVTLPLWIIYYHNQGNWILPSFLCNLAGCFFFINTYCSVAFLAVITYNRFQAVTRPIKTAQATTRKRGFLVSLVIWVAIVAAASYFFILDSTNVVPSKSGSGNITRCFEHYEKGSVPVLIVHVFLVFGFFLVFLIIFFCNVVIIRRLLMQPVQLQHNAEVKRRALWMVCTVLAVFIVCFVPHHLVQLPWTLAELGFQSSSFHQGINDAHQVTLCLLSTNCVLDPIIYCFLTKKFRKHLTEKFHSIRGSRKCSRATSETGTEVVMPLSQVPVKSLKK
Procedure: The binding assay was done in 400 µl polyethylene microcentrifuge tubes (Beckman) containing 50 µl of an oil mixture of 2 parts of Siliconol AR200 (Serva) and 1 part of Silicone Fluid (Arthur H. Thomas). Buffer, standards, or analogs (150 µl total volume) were added to the tubes. Radiolabelled ³H-PAF (50 µl) was then added to the tubes. The reaction was started by the addition of 50 µl of dog platelets (2 x 10⁷ platelets). The tubes were capped, inverted several times to mix, and incubated for 10 minutes at room temperature. The platelets were separated from the incubation mixture by centrifuging 1 minute in a Beckman Microfuge B centrifuge. The tip of the tubes were cut off, and the platelets were washed out of the tips with 200 µl of 50% methanol (Burdick and Jackson). Aquasol (NEN, 10 ml) was added and the radioactivity in the samples was determined using an LS 8100 Beckman liquid scintillation counter linked to a Techtran tape recorder. Data was processed through an in-house computer system. Alternatively, radioactivity was determined using a Searle Mark III liquid scintillation counter linked to a Iso-Data microprocessor.
Blood was collected from anesthesized or unanesthesized dogs into 50 ml plastic centrifuge tubes containing 3.8% sodium citrate as the anticoagulant (1 volume of citrate/9 volumes of blood). The red cells were removed by centrifugation for 15 minutes at 600 rpm (100-125 g) at room temperature. An aliquot of the supernatant platelet rich plasma (PRP) was saved for cell counting and the remainder was acidified to pH 6.5 with 0.15 M citric acid. The platelet pellet was obtained after a 10 minute centrifugation at 2000 rpm (1000 g) at room temperature. Washed platelets were prepared by resuspending the platelet pellet once with PBS containing 1 mM of EDTA, centrifuging as noted, and then resuspending the platelets in 0.1% of BSA/PBS. An aliquot of the washed platelets was counted. Platelets used for binding assays were diluted to 2 x 10⁷ platelets/assay tube (4 x 10⁸ platelets/ml). Platelet counting was done using a Royco Cell-Crit 921.

[2] = system: PAF Induced Bronchoconstriction; assay: PAF Induced Bronchoconstriction Assay; type: in vivo, guinea pigs; settings: Cavia porcellus; 1mg/Kg iv, 1 minute pretreatment, guinea pig, PAF challenge 1.0µg/kg intravenous; percent inhibition, spread = standard error of the mean
Procedure: Male guinea pigs (Hartley Strain, 400-500 g) were anesthetized with urethane (2 g/kg, i.p.). Each animals' trachea was cannulated and the guinea pigs were respirated using a Harvard small animal rodent respirator (3.0 cc stroke volume, 40 breaths per min.). Tracheal pressure was recorded from a cannula inserted in the trachea and connected to a Statham pressure Transducer.
The jugular vein was cannulated for administering compounds. Spontaneous breathing was arrested with succinylcholine (1.2 mg/kg, i.v.) administered 2 minutes prior to intravenous injection of platelet activating factor (PAF).
For the intravenous testing, the guinea pig is given a 5-minute pretreatment with propranolol at a dose of 0.1 mg/kg intravenously. The test compound is administered with a 1 minute pretreatment prior to intravenous challenge with PAF. The animal is then challenged with a 1.0µg/kg intravenous dose of PAF and the change in tracheal pressure is measured.
The change in tracheal pressure is determined by subtracting the steady state baseline achieved after administration of succinylcholine from the peak bronchoconstriction seen after challenge with PAF. The mean is calculated for each test compound and compared to the mean of the control animals to give the percent inhibition of bronchoconstriction. The standard error is calculated as the standard error of the mean.

Row | IC50 [1] [nM] | SMILES | IC50 (PAF Binding) [nM] | inhibition in vivo at 1 mg/kg [2] [%]
1 | 100 | O=C(CCCC=C(c1ccccc1)c1ccccc1)NCCCCc1cccnc1 [6,6-Diphenyl-N-[4-(3-pyridinyl)butyl]-5-hexenamide] |  | 
2 |  | COc1cccc(-c2c(/C=C/C(=O)NCCCCc3cccnc3)ccc3ccc(OC)cc23)c1 [(E)-3-[7-methoxy-1-(3-methoxyphenyl)-2-naphthalenyl]-N-[4-(3-pyridinyl)butyl]-2-propenamide] | 8 | 62
3 |  | CCCCc1c(/C=C/C(=O)N[C@H](C)CCCc2cccnc2)ccc2c(OC)cccc12 [[R-(E)]-3-(1-Butyl-5-methoxy-2-naphthalenyl)-N-[1-methyl-4-(3-pyridinyl)butyl]-2-propenamide] | 6 | 50
4 | 100 to 1000 | O=C(C=C(c1ccccc1)c1ccccc1)NCCCCc1cccnc1 [3,3-Diphenyl-N-[4-(3-pyridinyl)butyl]-2-propenamide] |  | 
5 | 10 to 100 | O=C(CCCCCCC=C(c1ccccc1)c1ccccc1)NCCCCc1cccnc1 [9,9-Diphenyl-N-[4-(3-pyridinyl)butyl]-8-nonenamide] |  | 
6 |  | COc1ccc(C2=C(/C=C/C(=O)N[C@H](C)CCCc3cccnc3)CCc3cc(OC)ccc32)cc1 [[R-(E)]-3-[3,4-Dihydro-6-methoxy-1-(4-methoxyphenyl)-2-naphthalenyl]-N-[1-methyl-4-(3-pyridinyl)butyl]-2-propenamide] | 30 | 95 ± 2
7 |  | CCCCCC1=C(/C=C/C(=O)N[C@H](C)CCCc2cccnc2)Cc2cc(OC)ccc21 [[R-(E)]-3-(6-methoxy-3-pentylindene-2-yl)-N-[1-methyl-4-(3-pyridinyl)butyl]-2-propenamide] | 33 | 96
8 |  | CCCCCc1c(/C=C/C(=O)N[C@H](C)CCCc2cccnc2)sc2cc(OC)ccc12 [[R-(E)]-3-(6-Methoxy-3-pentylbenzo-[b]thien-2-yl)-N-[1-methyl-4-(3-pyridinyl)butyl]-2-propenamide] | 24 | 98
9 | 100 to 1000 | O=C(CCC=C(c1ccccc1)c1ccccc1)NCCCCc1cccnc1 [5,5-Diphenyl-N-[4-(3-pyridinyl)butyl]-4-pentenamide] |  | 
10 |  | CCCCc1c(/C=C/C(=O)N[C@H](C)CCCc2cccnc2)cc(OC)c2ccc(OC)cc12 [[R-(E)]-3-(1-Butyl-4,7-dimethoxy-2-naphthalenyl)-N-[1-methyl-4-(3-pyridinyl)butyl]-2-propenamide] | 3 | 80
11 | 1000 | O=C(CC=C(c1ccccc1)c1ccccc1)NCCCCc1cccnc1 [4,4-Diphenyl-N-[4-(3-pyridinyl)butyl]-3-butenamide] |  | 
12 |  | CCCCc1c(/C=C/C(=O)N[C@H](C)CCCc2cccnc2)cc(OC)c2ccccc12 [[R-(E)]-3-(1-Butyl-4-methoxy-2-naphthalenyl)-N-[1-methyl-4-(3-pyridinyl)butyl]-2-propenamide] | 1 | 90
13 | 1000 to 10000 | COc1ccc(C(=CCCC(=O)NCCCCc2cccnc2)c2ccc(OC)cc2)cc1 [5,5-bis(4-methoxyphenyl)-N-[4-(3-pyridinyl)butyl]-4-pentenamide] |  | 
14 |  | COc1ccc(-c2c(/C=C/C(=O)N[C@H](C)CCCc3cccnc3)ccc3cc(OC)ccc23)cc1 [[R-(E)]-3-[6-Methoxy-1-(4-methoxyphenyl)-2-naphthalenyl]-N-[1-methyl-4-(3-pyridinyl)butyl]-2-propenamide] | 55 | 92
15 |  | CCCCc1c(/C=C/C(=O)N[C@H](C)CCCc2cccnc2)ccc2ccc(OC)cc12 [[R-(E)]-3-(1-Butyl-7-methoxy-2-naphthalenyl)-N-[1-methyl-4-(3-pyridinyl)butyl]-2-propenamide] | 15 | 
16 | 1000 to 10000 | O=C(CCC=C(c1ccc(F)cc1)c1ccc(F)cc1)NCCCCc1cccnc1 [5,5-bis(4-fluorophenyl)-N-[4-(3-pyridinyl)butyl]-4-pentenamide] |  | 
17 |  | CCCCc1c(/C=C/C(=O)N[C@H](C)CCCc2cccnc2)ccc2cc(OC)ccc12 [[R-(E)]-3-(1-Butyl-6-methoxy-2-naphthalenyl)-N-[1-methyl-4-(3-pyridinyl)butyl]-2-propenamide] | 7 | 95 ± 1
18 | 100 to 10000 | O=C(CCCCC=C(c1ccccc1)c1ccccc1)NCCCCc1cccnc1 [7,7-Diphenyl-N-[4-(3-pyridinyl)butyl]-6-heptenamide] |  | 
19 |  | CCCCC1=C(/C=C/C(=O)N[C@H](C)CCCc2cccnc2)CCc2cc(OC)ccc21 [[R-(E)]-3-(1-Butyl-3,4-dihydro-6-methoxy-2-naphthalenyl)-N-[1-methyl-4-(3-pyridinyl)butyl]-2-propenamide] |  | 94 ± 2
20 |  | CCCCCc1c(/C=C/C(=O)N[C@H](C)CCCc2cccnc2)oc2cc(OC)ccc12 [[R-(E)]-3-(6-Methoxy-3-pentylbenzofuran-2-yl)-N-[1-methyl-4-(3-pyridinyl)butyl]-2-propenamide] |  | 89
21 | 100 to 1000 | O=C(CCCCCC=C(c1ccccc1)c1ccccc1)NCCCCc1cccnc1 [8,8-Diphenyl-N-[4-(3-pyridinyl)butyl]-7-octenamide] |  | 
